The numbers were not newly measured in patent US9169245B2, “Inhibitors of PDE4 enzyme and antagonists of muscarinic M3 receptor” (CHIESI FARMACEUTICI S.p.A., priority 2012, dated 2015), which cites them from elsewhere.

For data set [1] the following is noted: COPD patients, oral, given over 4 weeks.
For data set [2] the following is noted: patients with severe disease, frequent exacerbations and mucus hypersecretion.

Turning to `O=C(Nc1c(Cl)cncc1Cl)c1ccc(OC(F)F)c(OCC2CC2)c1` [roflumilast], in data set [1], the “reduction of the numbers of neutrophils in sputum” value is 36%. Also, in data set [2], the “improvement of FEV 1” value is “approximately 50 ml” and the reduction of exacerbation entry was “about 15%”.
